The source made the active and inactive calls. No cut-off for these calls is given here.
Key:
4T1 [1] = test: Phototoxicity against mouse 4T1 cells assessed as cell viability at 0.5 uM preincubated for 4 hrs followed by 2 J/cm2 light irradiation and measured after 24 hrs by MTT assay relative to control; assay type: functional; conditions: 4T1, light or radiation study, read-out: Activity
MDA-MB-231 [2] = test: Phototoxicity against human MDA-MB-231 cells assessed as cell viability at 0.5 uM preincubated for 4 hrs followed by 0.5 to 2 J/cm2 light irradiation and measured after 24 hrs by MTT assay; assay type: functional, cell-based
[3] = Dark toxicity against human MDA-MB-231 cells assessed as cell viability at 0.5 uM after 24 hrs by MTT assay; assay type: cell-based; conditions: mda-mb-231, 24 h
[4] = Dark toxicity against human MCF7 cells assessed as cell viability at 0.5 uM after 24 hrs by MTT assay; assay type: cell-based; conditions: mcf7, 24 h
4T1 [5] = test: Antitumor activity against mouse 4T1 cells xenografted in BALB/c mouse assessed as inhibition of tumor volume at 1 mg/kg, iv pretreated for 24 hrs followed by 50 J/cm2 light irradiation and measured at day 22 post dose relative to control; assay type: functional; conditions: 4T1, light or radiation study
[6] = Selectivity index, ratio of dark toxicity against human MDA-MB-231 cells at 0.5 uM to phototoxicity against human MDA-MB-231 cells at 0.5 uM; assay type: cell-based; conditions: read-out: Selectivity Index
[7] = Selectivity index, ratio of dark toxicity against human MCF7 at 0.5 uM cells to phototoxicity against human MCF7 cells at 0.5 uM; assay type: cell-based; conditions: read-out: Selectivity Index
[8] = Drug uptake in lung of BALB/c mouse xenografted with mouse 4T1 cells at 10 mg/kg, iv measured at 12 hrs post injection by IVIS spectrum imaging; assay type: ADME, organism-based; conditions: in vivo
[9] = Drug uptake in mitochondria of human MDA-MB-231 cells at 10 uM after 4 hrs by Mito tracker green-based confocal laser scanning microscopic analysis; assay type: ADME; conditions: mda-mb-231, 4 h
[10] = Drug uptake in lysosome of human MDA-MB-231 cells at 10 uM after 4 hrs by Lyso tracker green-based confocal laser scanning microscopic analysis; assay type: ADME, subcellular; conditions: mda-mb-231, 4 h
[11] = Drug uptake in tumor of BALB/c mouse xenografted with mouse 4T1 cells at 10 mg/kg, iv measured at 12 hrs post injection by IVIS spectrum imaging; assay type: ADME, organism-based, Neoplasm; conditions: in vivo
MDA-MB-231 [12] = test: Induction of ROS generation in human MDA-MB-231 cells incubated with DCF-DA probe for 30 mins by flow cytometric analysis (reference value: 5.81%); assay type: cell-based; conditions: mda-mb-231, 0.5 h
MDA-MB-231 [13] = test: Induction of ROS generation in human MDA-MB-231 cells incubated with DCF-DA probe for 30 mins followed by 2 J/cm2 light irradiation and measured after 1 hr by flow cytometric analysis (reference value: 5.81%); assay type: functional
MDA-MB-231 [14] = test: Induction of apoptosis in human MDA-MB-231 cells assessed as late apoptotic cells after 24 hrs by Annexin-V FITC/propidium iodide staining based flow cytometric analysis (reference value: 1.28%); assay type: cell-based; conditions: mda-mb-231, 24 h
MDA-MB-231 [15] = test: Induction of apoptosis in human MDA-MB-231 cells assessed as necrotic cells after 24 hrs by Annexin-V FITC/propidium iodide staining based flow cytometric analysis (reference value: 4.24%); assay type: cell-based; conditions: mda-mb-231, 24 h
[16] = Induction of apoptosis in human MDA-MB-231 cells assessed as viable cells after 24 hrs by Annexin-V FITC/propidium iodide staining based flow cytometric analysis (reference value: 93.27%); assay type: cell-based; conditions: read-out: Activity
MDA-MB-231 [17] = test: Induction of apoptosis in human MDA-MB-231 cells assessed as late apoptotic cells after 24 hrs upon light irradiation by Annexin-V FITC/propidium iodide staining based flow cytometric analysis (reference value: 1.28%); assay type: functional
MDA-MB-231 [18] = test: Induction of apoptosis in human MDA-MB-231 cells assessed as necrotic cells after 24 hrs upon light irradiation by Annexin-V FITC/propidium iodide staining based flow cytometric analysis (reference value: 4.24%); assay type: functional
MDA-MB-231 [19] = test: Induction of apoptosis in human MDA-MB-231 cells assessed as viable cells after 24 hrs upon light irradiation by Annexin-V FITC/propidium iodide staining based flow cytometric analysis (reference value: 93.27%); assay type: functional
4T1 [20] = test: Antitumor activity against mouse 4T1 cells xenografted in BALB/c mouse assessed as inhibition of tumor weight at 1 to 4 mg/kg, iv pretreated for 24 hrs followed by 50 J/cm2 light irradiation and measured at day 22 post last dose; assay type: functional, organism-based
4T1 [21] = test: Induction of apoptosis in mouse 4T1 cells xenografted in BALB/c mouse at 4 mg/kg, iv pretreated for 24 hrs followed by 50 J/cm2 light irradiation by TUNEL assay; assay type: functional, organism-based
Mus musculus [22] = test: Toxicity in BALB/c mouse xenografted with mouse 4T1 cells assessed as effect on body weight at 4 mg/kg, iv measured at day 22 post last dose; assay type: organism-based; conditions: in vivo
Mus musculus [23] = test: Hepatotoxicity in BALB/c mouse xenografted with mouse 4T1 cells assessed as pathological changes in liver at 4 mg/kg, iv measured at day 22 post dose by hematoxylin and eosin staining based light microscopic analysis; assay type: toxicity, organism-based; conditions: in vivo
Mus musculus [24] = test: Nephrotoxicity in BALB/c mouse xenografted with mouse 4T1 cells assessed as pathological changes in kidney at 1 to 4 mg/kg, iv pre-tretaed for 24 hrs followed by 50 J/cm2 light irradiation and measured at day 22 post dose by hematoxylin and eosin staining based light microscopic analysis; assay type: toxicity, organism-based; conditions: in vivo
Mus musculus [25] = test: Toxicity in BALB/c mouse xenografted with mouse 4T1 cells assessed as pathological changes in spleen at 4 mg/kg, iv measured at day 22 post dose by hematoxylin and eosin staining based light microscopic analysis; assay type: organism-based; conditions: in vivo
MDA-MB-231 [26] = test: Induction of ROS generation in human MDA-MB-231 cells incubated with DCF-DA probe for 30 mins by flow cytometric analysis (reference value: 2.1%); assay type: cell-based; conditions: mda-mb-231, 0.5 h
MDA-MB-231 [27] = test: Induction of ROS generation in human MDA-MB-231 cells incubated with DCF-DA probe for 30 mins followed by 2 J/cm2 light irradiation and measured after 1 hr by flow cytometric analysis (reference value: 2.1%); assay type: functional
4T1 [28] = test: Antitumor activity against mouse 4T1 cells xenografted in BALB/c mouse at 4 mg/kg, iv preincubated for 24 hrs and measured at day 22 post dose; assay type: functional, organism-based

## C=Cc1c(C)c2cc3nc(cc4[nH]c(cc5nc(cc1[nH]2)C(C)=C5C(C)OCCCCCC)c(C)c4CCC(=O)[O-])C(CCC(=O)[O-])=C3C.[Na+].[Na+] (stereo unspecified)
4T1 [1]
  viability at 0.5 µM: 47.3%
MDA-MB-231 [2]
  Activity: Active
[3]
  Activity: Non-Toxic
[4]
  Activity: Non-Toxic
4T1 [5]
  inhibition in vivo at 1 mg/kg: 27.8%
[6]
  selectivity ratio at 0.5 µM: 161
[7]
  selectivity ratio at 0.5 µM: 90.8
[8]
  Drug uptake: Not Active
[9]
  Drug uptake: Active
[10]
  Drug uptake: Active
[11]
  Drug uptake: Active
MDA-MB-231 [12]
  Activity: 6.34%
MDA-MB-231 [13]
  Activity: 87.84%
MDA-MB-231 [14]
  Activity: 2.34%
MDA-MB-231 [15]
  Activity: 0.58%
[16]
  viability at 24 h: 93.4%
MDA-MB-231 [17]
  Activity: 53.54%
MDA-MB-231 [18]
  Activity: 10.12%
MDA-MB-231 [19]
  Activity: 32.52%
4T1 [20]
  inhibition: Active
4T1 [21]
  Activity: Active
Mus musculus [22]
  Activity: Non-Toxic
Mus musculus [23]
  Activity: Non-Toxic
Mus musculus [24]
  Activity: Non-Toxic
Mus musculus [25]
  Activity: Non-Toxic

## C=CC1=C(C)c2cc3[nH]c(cc4nc(cc5[nH]c(cc1n2)c(C)c5CCC(=O)[O-])C(CCC(=O)[O-])=C4C)c(C)c3C(C)OCCCCCC.[Na+].[Na+] (stereo unspecified)
4T1 [1]
  viability at 0.5 µM: 54.6%
MDA-MB-231 [2]
  Activity: Active
[3]
  Activity: Non-Toxic
[4]
  Activity: Non-Toxic
4T1 [5]
  inhibition in vivo at 1 mg/kg: 15.4%
[6]
  selectivity ratio at 0.5 µM: 59.6
[7]
  selectivity ratio at 0.5 µM: 24.2
[8]
  Drug uptake: Not Active
[9]
  Drug uptake: Active
[10]
  Drug uptake: Active
[11]
  Drug uptake: Active
MDA-MB-231 [26]
  Activity: 2.21%
MDA-MB-231 [27]
  Activity: 46.7%
MDA-MB-231 [14]
  Activity: 2.73%
MDA-MB-231 [15]
  Activity: 0.4%
[16]
  viability at 24 h: 92.8%
MDA-MB-231 [17]
  Activity: 40.09%
MDA-MB-231 [18]
  Activity: 11.12%
MDA-MB-231 [19]
  Activity: 41.63%
4T1 [20]
  inhibition: Active
4T1 [28]
  Activity: inactive
4T1 [21]
  Activity: Active
Mus musculus [22]
  Activity: Non-Toxic
Mus musculus [23]
  Activity: Non-Toxic
Mus musculus [24]
  Activity: Non-Toxic
Mus musculus [25]
  Activity: Non-Toxic
